Source: patent publication US20190105264A1, “NON-INVASIVE OCULAR DRUG DELIVERY DEVICES” (Aciont Inc., priority 2017, published 2019)

What was measured:
[1] = Ocular toxicity study: body weight; details: 20 min, 12 weekly doses
Description: (§1) For the ocular toxicity study, there were four groups. […] The total exposure was 12 doses over the period of 12 weeks. Clinical observations were performed on weekdays, and before and after each dosing. Following the final observations (i.e., one week after the last dose), the rabbits were sacrificed and the eyes were processed for histological evaluation.
Body weights of the animal were taken upon arrival, and then monthly. All animals (both left and right eyes) were examined by indirect ophthalmoscopy of the cornea, conjunctiva, anterior chamber, vitreous, posterior chamber, and sclera. One to two drops each of phenylephrine hydrochloride and cyclopentolate hydrochloride were used as mydriatics. Observations on the anterior and posterior segments of the eye were made, graded, and recorded. A modified McDonald-Shadduck scale was used for grading eye irritation and ocular toxicity.

treated eyes (right eye) = details: rabbit, in vivo
Description: Young adult New Zealand White rabbits each weighing 3-4 kg were obtained from Western Oregon Rabbit Co. (Philomath, Oreg.). […] All animals were acclimated and observed for health issues for at least two weeks prior to being used in the study.
as §1
One drop of sterile proparacaine hydrochloride (a local anesthetic) was put on the eye (to be treated) 5 minutes before dose administration. […] The position of the device was checked to ensure that the active agent matrix was in immediate contact with the white part of the eye but not the cornea. Digital timers were used for accurate application times (i.e., 5, 10, or 20 minutes). After the given application duration, the applicator was carefully removed from the eye.
All animals (both left and right eyes) were examined by indirect ophthalmoscopy of the cornea, conjunctiva, anterior chamber, vitreous, posterior chamber, and sclera. […] Observations on the anterior and posterior segments of the eye were made, graded, and recorded. […]

For `C[C@@H]1C[C@H]2[C@@H]3CCC4=CC(=O)C=C[C@]4(C)[C@@]3(F)[C@@H](O)C[C@]2(C)[C@@]1(O)C(=O)COP(=O)(O)O` [DSP, dexamethasone sodium phosphate], the “Body Weight” value ([1]; 15% DSP) was 8% loss, the “Body Weight” value ([1]; 25% DSP) was 13% loss and the “Typical conjunctival injection scores immediately after treatment” value (treated eyes (right eye); New Zealand White, 12 weeks) was 1 or <1. The “Ocular findings in treated eyes (conjunctival injection, discharge, corneal haze)” value (treated eyes (right eye)) was “transient and mild in nature”.
